System: 677734-321-R-J1-PDC complex spheroid viability
Test: Anticancer human tumor 677734-321-R-J1-PDC patient-derived soft tissue sarcoma cell line growth inhibition [POLQ]
Settings: for IC50: curve of first compound; for viability, T/C: stronger effect = lower value
Procedure, shortened: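 Complex spheroid viability model combining PDC tumour cells with endothelial (HUVEC) and MSC stromal cells. Novobiocin, ART-558 or RP6685 were tested singly and in combination with standard and investigational anticancer drugs. Each was titrated in half-log steps from near clinical Cmax, or from 10 microM where Cmax was unknown.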

[1] = second compound 0.0316 µM, first compound 0.0316 µM
[2] = second compound 0.0316 µM, first compound 0.1 µM
[3] = second compound 0.0316 µM, first compound 0.316 µM
[4] = second compound 0.0316 µM, first compound 1 µM
[5] = second compound 0.1 µM, first compound 0.0316 µM
[6] = second compound 0.1 µM, first compound 0.1 µM
[7] = second compound 0.1 µM, first compound 0.316 µM
[8] = second compound 0.1 µM, first compound 1 µM
[9] = second compound 0.316 µM, first compound 0.0316 µM
[10] = second compound 0.316 µM, first compound 0.1 µM
[11] = second compound 0.316 µM, first compound 0.316 µM
[12] = second compound 0.316 µM, first compound 1 µM
[13] = second compound 1 µM, first compound 0.0316 µM
[14] = second compound 1 µM, first compound 0.1 µM
[15] = second compound 1 µM, first compound 0.316 µM
[16] = second compound 1 µM, first compound 1 µM
[17] = second compound 3.16 µM, first compound 0.0316 µM
[18] = second compound 3.16 µM, first compound 0.1 µM
[19] = second compound 3.16 µM, first compound 0.316 µM
[20] = second compound 3.16 µM, first compound 1 µM
[21] = second compound 10 µM, first compound 0.0316 µM
[22] = second compound 10 µM, first compound 0.1 µM
[23] = second compound 10 µM, first compound 0.316 µM
[24] = second compound 10 µM, first compound 1 µM
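Further: spheroids exposed to compounds for one week.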
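Wherever viability, T/C is given: 100% = vehicle DMSO treated spheroids.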

For `COc1cc(C2c3cc4c(cc3C(OC3OC5COC(C)OC5C(O)C3O)C3COC(=O)C23)OCO4)cc(OC)c1O` (stereo unspecified) + Cc1cccc(N(C)C(=O)C2C(O)CCN2c2nc(C)cc(C(F)(F)F)c2C#N)c1, the IC50 (second compound 0.0316 µM) was 773 nM, the IC50 (second compound 0.1 µM) was 873 nM and the IC50 (second compound 0.316 µM) was 907 nM. For the same molecule, the IC50 (second compound 1 µM) was 821 nM, the IC50 (second compound 3.16 µM) was 641 nM and the IC50 (second compound 10 µM) was 814 nM. For the same molecule, the viability, T/C [1] was 99.4%, the viability, T/C [2] was 101% and the viability, T/C [3] was 60.8%. The viability, T/C [4] was 47%, the viability, T/C (second compound 0.0316 µM, first compound 3.16 µM) was 26.6% and the viability, T/C (second compound 0.0316 µM, first compound 10 µM) was 10.5%. The viability, T/C [5] was 103%, the viability, T/C [6] was 87.7% and the viability, T/C [7] was 63.3%. For the same molecule, the viability, T/C [8] was 54.3%, the viability, T/C (second compound 0.1 µM, first compound 3.16 µM) was 23% and the viability, T/C (second compound 0.1 µM, first compound 10 µM) was 10.7%. For the same molecule, the viability, T/C [9] was 107%, the viability, T/C [10] was 90.6% and the viability, T/C [11] was 68.6%. The viability, T/C [12] was 52.4%, the viability, T/C (second compound 0.316 µM, first compound 3.16 µM) was 22.5% and the viability, T/C (second compound 0.316 µM, first compound 10 µM) was 8.11%. It also gave a viability, T/C [13] of 114%, a viability, T/C [14] of 86.1% and a viability, T/C [15] of 62.6%. For the same molecule, the viability, T/C [16] was 50.1%, the viability, T/C (second compound 1 µM, first compound 3.16 µM) was 23.7% and the viability, T/C (second compound 1 µM, first compound 10 µM) was 9.86%. The viability, T/C [17] was 104%, the viability, T/C [18] was 88.7% and the viability, T/C [19] was 52%. The viability, T/C [20] was 50.7%, the viability, T/C (second compound 3.16 µM, first compound 3.16 µM) was 22% and the viability, T/C (second compound 3.16 µM, first compound 10 µM) was 10.1%. For the same molecule, the viability, T/C [21] was 107%, the viability, T/C [22] was 83.3% and the viability, T/C [23] was 65.8%. It also gave a viability, T/C [24] of 52.7%, a viability, T/C (second compound 10 µM, first compound 3.16 µM) of 21.5% and a viability, T/C (second compound 10 µM, first compound 10 µM) of 14.7%.
With `C=CCn1c(=O)c2cnc(Nc3ccc(N4CCN(C)CC4)cc3)nc2n1-c1cccc(C(C)(C)O)n1` + Cc1cccc(N(C)C(=O)C2C(O)CCN2c2nc(C)cc(C(F)(F)F)c2C#N)c1 the IC50 (second compound 0.0316 µM) was 627 nM, the IC50 (second compound 0.1 µM) was 478 nM and the IC50 (second compound 0.316 µM) was 661 nM. For the same molecule, the IC50 (second compound 1 µM) was 401 nM, the IC50 (second compound 3.16 µM) was 537 nM and the IC50 (second compound 10 µM) was 493 nM. For the same molecule, the viability, T/C (second compound 0.0316 µM, first compound 0.00316 µM) was 102%, the viability, T/C (second compound 0.0316 µM, first compound 0.01 µM) was 102% and the viability, T/C [1] was 102%. For the same molecule, the viability, T/C [2] was 90.6%, the viability, T/C [3] was 81% and the viability, T/C [4] was 29.7%. It also gave a viability, T/C (second compound 0.1 µM, first compound 0.00316 µM) of 88.6%, a viability, T/C (second compound 0.1 µM, first compound 0.01 µM) of 92.4% and a viability, T/C [5] of 106%. The viability, T/C [6] was 78.4%, the viability, T/C [7] was 67.4% and the viability, T/C [8] was 21.7%. It also gave a viability, T/C (second compound 0.316 µM, first compound 0.00316 µM) of 96.7%, a viability, T/C (second compound 0.316 µM, first compound 0.01 µM) of 95.3% and a viability, T/C [9] of 90.9%. The viability, T/C [10] was 85.6%, the viability, T/C [11] was 79% and the viability, T/C [12] was 34.4%. It also gave a viability, T/C (second compound 1 µM, first compound 0.00316 µM) of 117%, a viability, T/C (second compound 1 µM, first compound 0.01 µM) of 93.7% and a viability, T/C [13] of 98.9%. It also gave a viability, T/C [14] of 85%, a viability, T/C [15] of 51.4% and a viability, T/C [16] of 30.2%. It also gave a viability, T/C (second compound 3.16 µM, first compound 0.00316 µM) of 107%, a viability, T/C (second compound 3.16 µM, first compound 0.01 µM) of 87.7% and a viability, T/C [17] of 76.3%. For the same molecule, the viability, T/C [18] was 87.8%, the viability, T/C [19] was 66.8% and the viability, T/C [20] was 31.9%. The viability, T/C (second compound 10 µM, first compound 0.00316 µM) was 89.6%, the viability, T/C (second compound 10 µM, first compound 0.01 µM) was 82.6% and the viability, T/C [21] was 95.3%. It also gave a viability, T/C [22] of 82.3%, a viability, T/C [23] of 70% and a viability, T/C [24] of 18.6%.
For `CC(=O)O[C@H]1C(=O)[C@@]2(C)[C@H]([C@H](OC(=O)c3ccccc3)[C@]3(O)C[C@H](OC(=O)[C@H](O)[C@@H](NC(=O)c4ccccc4)c4ccccc4)C(C)=C1C3(C)C)[C@]1(OC(C)=O)CO[C@@H]1C[C@@H]2O` + Nc1ccc(C#CCN(C(=O)Cc2ncc(C(F)(F)F)cc2C(F)(F)F)c2ccc(F)cc2)nn1, the IC50 (second compound 0.0316 µM) was < 9.49 nM, the IC50 (second compound 0.1 µM) was < 9.49 nM and the IC50 (second compound 0.316 µM) was < 9.49 nM. The IC50 (second compound 1 µM) was < 9.49 nM, the IC50 (second compound 3.16 µM) was < 9.49 nM and the IC50 (second compound 10 µM) was < 9.49 nM. It also gave a viability, T/C (second compound 0.0316 µM, first compound 0.00949 µM) of 21.6%, a viability, T/C (second compound 0.0316 µM, first compound 0.03 µM) of 15% and a viability, T/C (second compound 0.0316 µM, first compound 0.0949 µM) of 13.9%. The viability, T/C (second compound 0.0316 µM, first compound 0.3 µM) was 14.6%, the viability, T/C (second compound 0.0316 µM, first compound 0.949 µM) was 14.9% and the viability, T/C (second compound 0.0316 µM, first compound 3 µM) was 17.6%. The viability, T/C (second compound 0.1 µM, first compound 0.00949 µM) was 32.9%, the viability, T/C (second compound 0.1 µM, first compound 0.03 µM) was 18.3% and the viability, T/C (second compound 0.1 µM, first compound 0.0949 µM) was 14.2%. It also gave a viability, T/C (second compound 0.1 µM, first compound 0.3 µM) of 13.9%, a viability, T/C (second compound 0.1 µM, first compound 0.949 µM) of 14.3% and a viability, T/C (second compound 0.1 µM, first compound 3 µM) of 16.1%. The viability, T/C (second compound 0.316 µM, first compound 0.00949 µM) was 21.7%, the viability, T/C (second compound 0.316 µM, first compound 0.03 µM) was 17.9% and the viability, T/C (second compound 0.316 µM, first compound 0.0949 µM) was 14.7%. It also gave a viability, T/C (second compound 0.316 µM, first compound 0.3 µM) of 11.6%, a viability, T/C (second compound 0.316 µM, first compound 0.949 µM) of 13.8% and a viability, T/C (second compound 0.316 µM, first compound 3 µM) of 15.7%. The viability, T/C (second compound 1 µM, first compound 0.00949 µM) was 32.7%, the viability, T/C (second compound 1 µM, first compound 0.03 µM) was 17.1% and the viability, T/C (second compound 1 µM, first compound 0.0949 µM) was 16.6%. The viability, T/C (second compound 1 µM, first compound 0.3 µM) was 15%, the viability, T/C (second compound 1 µM, first compound 0.949 µM) was 13.3% and the viability, T/C (second compound 1 µM, first compound 3 µM) was 12.2%. The viability, T/C (second compound 3.16 µM, first compound 0.00949 µM) was 34.1%, the viability, T/C (second compound 3.16 µM, first compound 0.03 µM) was 16.9% and the viability, T/C (second compound 3.16 µM, first compound 0.0949 µM) was 11.8%. It also gave a viability, T/C (second compound 3.16 µM, first compound 0.3 µM) of 13.4%, a viability, T/C (second compound 3.16 µM, first compound 0.949 µM) of 13.5% and a viability, T/C (second compound 3.16 µM, first compound 3 µM) of 16.4%. For the same molecule, the viability, T/C (second compound 10 µM, first compound 0.00949 µM) was 28.8%, the viability, T/C (second compound 10 µM, first compound 0.03 µM) was 16.4% and the viability, T/C (second compound 10 µM, first compound 0.0949 µM) was 12.6%. For the same molecule, the viability, T/C (second compound 10 µM, first compound 0.3 µM) was 13.4%, the viability, T/C (second compound 10 µM, first compound 0.949 µM) was 13% and the viability, T/C (second compound 10 µM, first compound 3 µM) was 16.8%.
